Results as given in patent EP3298025B1, “NEW AMINO ACID SEQUENCES WITH MI[…] DERIVED FROM NAJA ATRA CARDIOTOXIN 1 (CTX-1)” (Università degli Studi di Parma, priority 2015, dated 2016).
Several values for one entry are separate records, joined by “and”; a condition that tells them apart may be missing. Equal values may be shown once. Residues, ends and D or L forms follow the SMILES beside them.

How the values were obtained:
[1] = system: E. coli ATCC 25922; experiment: antimicrobial activity in presence of Muller-Hinton 20%; assay type: cell-based; settings: 20% of Muller-Hinton medium
Description: (§1) This example verifies the peptides antimicrobial activity in presence of a concentration of 20% of Muller-Hinton liquid medium, characterized by the presence of salts with high concentration.
(§2) Peptides were tested in the ability to inhibit bacterial growth in liquid medium. 50 µl of peptides at a concentration between 3.1 µg/ml (NCP-0=1.4µM; NCP-2=[…]; NCP-3=1.3 µM) and 100 µg/ml (NCP-0=46.3 µM; NCP-2=43.2 µM; NCP-3=41.6 µM) were added in microtiter plate wells with phosphate buffer 10 mM with Muller-Hinton liquid medium al the final concentration of 20% and one of these bacteria: E. coli ATCC 25922, Pseudomonas aeruginosa ATCC 27853, Staphylococcus aureus ATCC 25923 and Staphylococcus aureus methicillin resistant ATCC 43300. After 2 hours incubation at 37°C, bacteria were transplanted on solid culture medium. Bacterial cultures were cultivated without peptides as growth control.

[2] = system: Pseudomonas aeruginosa ATCC 27853; experiment: as above; assay type: cell-based; settings: 20% of Muller-Hinton medium
Description: as §1, §2

[3] = system: Staphylococcus aureus ATCC 25923; experiment: as above; assay type: cell-based; settings: 20% of Muller-Hinton medium
Description: as §1, §2

[4] = system: Candida albicans ATCC 10231; experiment: micro-dilution in liquid medium and transplant on solid medium, yeasts; assay type: cell-based; settings: 2 hours at 37°C, transplant on agar Sabouraud
Description: (§3) Candida albicans ATCC 10231, Candida glabrata ATCC 2001 and Malassetia pachydermatis ATCC 14522 were cultivated in Czapek-Dox broth (DIFCO) medium for 48-72 hours. On the day of the test the fungal culture was centrifuged at 1700G for 15 minutes and the pellet resuspended in phosphate buffer, then put in agitation on an electric vortex to disrupt fungal cell aggregations. The suspension was diluted to get a final optical density of 0,5 of the McFarland scale (about 1-5x10^6 cell/ml) (Branda J.A., Krantz A. Effect of yeast on automated cell counting. Am J Clin Pathol., 2006:126, 248-254.).
(§4) Peptides ability to inhibit the fungal growth in liquid cultures was tested. 50 µl of each peptides solutions of about 0.2-50 µM were added in microtiter plates with 96 wells with U-shaped bottom, with liquid culture medium and one of these fungi: Candida albicans ATCC 10231, Candida glabrata ATCC 2001 and Malassetia pachydermatis ATCC 14522. After 2 hours of incubation at 37°C, fungal suspensions were plated on solid culture medium, agar Sabouraud. Fungal cultures were cultivated without peptides as growth control.
(§5) the fungal suspension and peptides at differing concentrations were in contact for about 2 hours at 37°C. After this incubation, 20 µl from every well of the plate were transplanted on solid culture medium, agar Sabouraud. The inoculum was evenly distributed on the agar with the aid of a sterile disposable handle. After an incubation time of 24 hours at 37°C, the fungal colonies (cfu) were counted.

[5] = system: Candida glabrata ATCC 2001; experiment: as above; assay type: cell-based; settings: 2 hours at 37°C, transplant on agar Sabouraud
Description: as §3, §4, §5

[6] = system: Malassetia pachydermatis ATCC 14522; experiment: as above; assay type: cell-based; settings: 2 hours at 37°C, transplant on agar Sabouraud
Description: as §3, §4, §5

[7] = system: Pseudomonas aeruginosa ATCC 27853; experiment: antimicrobial activity in presence of NaCl; assay type: cell-based
Description: Peptides were tested in the ability to inhibit bacterial growth in liquid medium. 50 µl of peptides at a concentration […] E. coli ATCC 25922, Pseudomonas aeruginosa ATCC 27853 and Staphylococcus aureus methicillin resistant ATCC 43300. After 2 hours incubation at 37°C, bacteria were plated on solid culture medium. Bacterial cultures were cultivated without peptides as growth control.
The bacterial suspension and peptides at differing concentrations were put in contact for about 2 hours at 37°C. After this incubation, 20 µl from every well of the plate were transplanted on solid culture medium, McConkey agar for Gram-negative and Columbia agar with 5% of bovine erythrocytes for Gram-positive bacteria. The inoculum was evenly distributed on the agar medium using a single use sterile handle. After an incubation time of 24 hours at 37°C, the bacterial colonies (cfu) were counted.

[8] = system: MRSA ATCC 43300; experiment: antimicrobial activity in presence of Muller-Hinton 20%; assay type: cell-based, Staphylococcus aureus; settings: 20% of Muller-Hinton medium
Description: as §1, §2

[9] = system: tested fungal strains; experiment: micro-dilution and transplant on solid medium, summary over yeast panel; assay type: cell-based; settings: over Candida albicans ATCC 10231, Candida glabrata ATCC 2001 and Malassetia pachydermatis ATCC 14522
Description: as §3, §4
the fungal suspension and peptides at differing concentrations were in contact for about 2 hours at 37°C. […] After an incubation time of 24 hours at 37°C, the fungal colonies (cfu) were counted.

CC[C@H](C)[C@H](NC(=O)[C@H](CCCCN)NC(=O)[C@H](Cc1ccc(O)cc1)NC(=O)[C@H](CS)NC(=O)[C@H](CC(C)C)NC(=O)[C@H](CC(N)=O)NC(=O)[C@H](CCCCN)NC(=O)CNC(=O)[C@H](C)NC(=O)[C@@H]1CCCN1C(=O)[C@H](CS)NC(=O)[C@@H](NC(=O)[C@H](CCCCN)NC(=O)[C@H](CO)NC(=O)[C@H](C)NC(=O)[C@@H](NC(=O)[C@@H]1CCCN1C(=O)[C@@H](NC(=O)[C@H](CC(C)C)NC(=O)[C@@H](N)CCCCN)[C@@H](C)CC)[C@@H](C)CC)[C@@H](C)O)C(=O)O [NCP-0, K LIPIA SKT CPA GKN LCY KI] (H-KLIPIASKTCPAGKNLCYKI-OH; N-terminus and C-terminus assumed)
> 100 µg/ml and > 46.3 µM: LD90 [4] | LD90 [5]
0%: Antimicrobial activity (% to control) ([1]; peptide 3.1 µg/ml) | Antimicrobial activity (% to control) ([1]; peptide 6.3 µg/ml) | Antimicrobial activity (% to control) ([1]; peptide 12.5 µg/ml) | Antimicrobial activity (% to control) ([1]; peptide 100 µg/ml) | Antimicrobial activity (% to control) ([2]; peptide 3.1 µg/ml) | Antimicrobial activity (% to control) ([2]; peptide 6.3 µg/ml) | Antimicrobial activity (% to control) ([2]; peptide 12.5 µg/ml) | Antimicrobial activity (% to control) ([2]; peptide 100 µg/ml) | Antimicrobial activity (% to control) ([3]; peptide 3.1 µg/ml) | Antimicrobial activity (% to control) ([3]; peptide 6.3 µg/ml) | Antimicrobial activity (% to control) ([3]; peptide 12.5 µg/ml) | Antimicrobial activity (% to control) ([3]; peptide 100 µg/ml) | Antimicrobial activity (% to control) ([7]; 10 mM NaCl, peptide 12.5 µg/ml) | Antimicrobial activity (% to control) ([7]; 125 mM NaCl, peptide 12.5 µg/ml) | Antimicrobial activity (% to control) ([7]; 125 mM NaCl, peptide 100 µg/ml) | Antimicrobial activity (% to control) ([7]; 250 mM NaCl, peptide 12.5 µg/ml) | Antimicrobial activity (% to control) ([7]; 250 mM NaCl, peptide 100 µg/ml) | Antimicrobial activity (% to control) ([8]; peptide 3.1 µg/ml) | Antimicrobial activity (% to control) ([8]; peptide 6.3 µg/ml) | Antimicrobial activity (% to control) ([8]; peptide 12.5 µg/ml) | Antimicrobial activity (% to control) ([8]; peptide 100 µg/ml)
2%: Antimicrobial activity (% to control) ([7]; 10 mM NaCl, peptide 100 µg/ml)
151.87 µg/ml and 70.3 µM: LD99 [6]
> 200 µg/ml and > 92.6 µM: LD99 [4] | LD99 [5]
> 150 µg/ml and > 69.2 µM: LD99 [9]
150.82 µg/ml and 69.8 µM: LD90 [6]
